Laboratory results reported in PubChem BioAssay (NCI).
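Where inhibition never reached the appropriate level, the endpoint shown equals the highest concentration tested. Otherwise, values were interpolated linearly from a five-concentration, 48-hour dose response in 96-well plates. At the TGI there is no net growth.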

Tests used:
Test in all cases: NCI tumour cell line growth inhibition, 48 h
[1] = system: HOP-92 NSCLC
[2] = system: HT29 colon
[3] = system: OVCAR-4 ovarian
[4] = system: DLD-1 colon
[5] = system: OVCAR-5 ovarian
[6] = system: CAKI-1 renal
[7] = system: SNB-78 CNS
[8] = system: LOX IMVI melanoma
[9] = system: SNB-75 CNS
[10] = system: HOP-18 NSCLC
[11] = system: IGROV1 ovarian
[12] = system: KM12 colon
[13] = system: U251 CNS
[14] = system: SK-MEL-28 melanoma
[15] = system: UACC-257 melanoma
[16] = system: SNB-19 CNS
[17] = system: ACHN renal
[18] = system: SF-295 CNS
[19] = system: RXF-631 renal
[20] = system: A549 NSCLC
[21] = system: SF-539 CNS
[22] = system: SK-MEL-2 melanoma
[23] = system: HL-60(TB) leukemia
[24] = system: RPMI-8226 leukemia
[25] = system: HOP-62 NSCLC
[26] = system: K-562 leukemia
[27] = system: UACC-62 melanoma
[28] = system: UO-31 renal
[29] = system: SK-OV-3 ovarian
[30] = system: DMS 273 small cell lung
[31] = system: HCC-2998 colon
[32] = system: EKVX NSCLC
[33] = system: A498 renal
[34] = system: OVCAR-3 ovarian
[35] = system: NCI-H23 lung
[36] = system: MALME-3M melanoma
[37] = system: CCRF-CEM leukemia
[38] = system: NCI-H460 lung
[39] = system: HCT-116 colon
[40] = system: LXFL 529 NSCLC
[41] = system: SF-268 CNS
[42] = system: HCT-15 colon
[43] = system: OVCAR-8 ovarian
[44] = system: 786-0 renal
[45] = system: TK-10 renal
[46] = system: M19-MEL melanoma
[47] = system: NCI-H226 lung
[48] = system: KM20L2 colon
[49] = system: DMS 114 small cell lung
[50] = system: SK-MEL-5 melanoma
[51] = system: MOLT-4 leukemia
[52] = system: SW-620 colon
[53] = system: M14 melanoma
[54] = system: NCI-H522 lung
[55] = system: RXF 393 renal
[56] = system: COLO 205 colon
[57] = system: XF 498 CNS
[58] = system: SR leukemia
[59] = system: SN12C renal

For `O=c1[nH]c(=O)n([C@@H]2C[C@H](CO)[C@H](O)C2)cc1/C=C/Br`, the TGI [1] was over 100 µM, the TGI [2] was over 100 µM and the TGI [3] was over 100 µM. For the same compound, the TGI [4] was over 100 µM, the TGI [5] was over 100 µM and the TGI [6] was over 100 µM. The TGI [7] was over 100 µM, the TGI [8] was over 100 µM and the TGI [9] was over 100 µM. For the same compound, the TGI [10] was over 100 µM, the TGI [11] was over 100 µM and the TGI [12] was over 100 µM. The TGI [13] was over 100 µM, the TGI [14] was over 100 µM and the TGI [15] was over 100 µM. It also gave a TGI [16] of over 100 µM, a TGI [17] of over 100 µM and a TGI [18] of over 100 µM. For the same compound, the TGI [19] was over 100 µM, the TGI [20] was over 100 µM and the TGI [21] was over 100 µM. The TGI [22] was over 100 µM, the TGI [23] was over 100 µM and the TGI [24] was over 100 µM. For the same compound, the TGI [25] was over 100 µM, the TGI [26] was over 100 µM and the TGI [27] was over 100 µM. The TGI [28] was over 100 µM, the TGI [29] was over 100 µM and the TGI [30] was over 100 µM. For the same compound, the TGI [31] was over 100 µM, the TGI [32] was over 100 µM and the TGI [33] was over 100 µM. It also gave a TGI [34] of over 100 µM, a TGI [35] of over 100 µM and a TGI [36] of over 100 µM. The TGI [37] was over 100 µM, the TGI [38] was over 100 µM and the TGI [39] was over 100 µM. For the same compound, the TGI [40] was over 100 µM, the TGI [41] was over 100 µM and the TGI [42] was over 100 µM. The TGI [43] was over 100 µM, the TGI [44] was over 100 µM and the TGI [45] was over 100 µM. The TGI [46] was over 100 µM, the TGI [47] was over 100 µM and the TGI [48] was over 100 µM. The TGI [49] was over 100 µM, the TGI [50] was over 100 µM and the TGI [51] was over 100 µM. It also gave a TGI [52] of over 100 µM, a TGI [53] of over 100 µM and a TGI [54] of over 100 µM.

Work on `CCO/C=C/C(C)C1(C(=O)OCC)CCCCC1=O` (stereo unspecified) yielded a TGI [1] of over 100 µM, a TGI [2] of over 100 µM and a TGI [3] of over 100 µM. It also gave a TGI [4] of over 100 µM, a TGI [5] of over 100 µM and a TGI [6] of over 100 µM. The TGI [7] was over 100 µM, the TGI [8] was over 100 µM and the TGI [9] was over 100 µM. The TGI [10] was over 100 µM, the TGI [11] was over 100 µM and the TGI [12] was over 100 µM. The TGI [55] was over 100 µM, the TGI [13] was over 100 µM and the TGI [14] was over 100 µM. The TGI [15] was over 100 µM, the TGI [16] was over 100 µM and the TGI [56] was over 100 µM. For the same compound, the TGI [17] was over 100 µM, the TGI [18] was over 100 µM and the TGI [19] was over 100 µM. The TGI [20] was over 100 µM, the TGI [21] was over 100 µM and the TGI [22] was over 100 µM. The TGI [23] was over 100 µM, the TGI [24] was over 100 µM and the TGI [57] was over 100 µM. The TGI [25] was over 100 µM, the TGI [26] was over 100 µM and the TGI [27] was over 100 µM. The TGI [28] was over 100 µM, the TGI [29] was over 100 µM and the TGI [30] was 47 µM. For the same compound, the TGI [31] was over 100 µM, the TGI [32] was over 100 µM and the TGI [33] was over 100 µM. It also gave a TGI [34] of over 100 µM, a TGI [35] of over 100 µM and a TGI [36] of over 100 µM. It also gave a TGI [37] of over 100 µM, a TGI [38] of over 100 µM and a TGI [39] of over 100 µM. It also gave a TGI [58] of over 100 µM, a TGI [40] of over 100 µM and a TGI [41] of over 100 µM. The TGI [42] was over 100 µM, the TGI [43] was over 100 µM and the TGI [44] was over 100 µM. For the same compound, the TGI [45] was over 100 µM, the TGI [46] was over 100 µM and the TGI [47] was over 100 µM. It also gave a TGI [48] of over 100 µM, a TGI [49] of over 100 µM and a TGI [50] of over 100 µM. For the same compound, the TGI [51] was over 100 µM, the TGI [53] was over 100 µM and the TGI [59] was over 100 µM. It also gave a TGI [54] of over 100 µM.

For `O=C(O)C1C2CCC(O2)C1C(=O)N1CCCCC1` (stereo unspecified), the TGI [1] was 7.33 µM, the TGI [2] was 15.1 µM and the TGI [3] was 24.4 µM. It also gave a TGI [4] of 39.7 µM, a TGI [5] of 62.8 µM and a TGI [7] of 38.3 µM. For the same compound, the TGI [8] was 23.3 µM, the TGI [9] was 17.2 µM and the TGI [10] was 36.5 µM. The TGI [11] was 74.6 µM, the TGI [12] was 37.2 µM and the TGI [55] was 8.35 µM. The TGI [13] was 17 µM, the TGI [14] was 19.5 µM and the TGI [15] was 32.4 µM. The TGI [16] was 38.2 µM, the TGI [56] was 3.87 µM and the TGI [17] was 17 µM. It also gave a TGI [18] of 23.9 µM, a TGI [19] of 51.6 µM and a TGI [20] of over 100 µM. It also gave a TGI [21] of 23.5 µM, a TGI [22] of 21.2 µM and a TGI [24] of 7.88 µM. The TGI [25] was 35.8 µM, the TGI [27] was 20.4 µM and the TGI [28] was 46 µM. The TGI [29] was 42.9 µM, the TGI [30] was 23.3 µM and the TGI [31] was 11.9 µM. It also gave a TGI [32] of 29.2 µM, a TGI [33] of 4.46 µM and a TGI [34] of 4.66 µM. The TGI [35] was 33.4 µM, the TGI [36] was 23.6 µM and the TGI [38] was 39.2 µM. The TGI [39] was 22.6 µM, the TGI [58] was 14.2 µM and the TGI [40] was 16.9 µM. It also gave a TGI [41] of 28.9 µM, a TGI [42] of 26.1 µM and a TGI [43] of 18.1 µM. For the same compound, the TGI [44] was 15 µM, the TGI [45] was 8.42 µM and the TGI [46] was 21.9 µM. The TGI [47] was 16.6 µM, the TGI [48] was 13.1 µM and the TGI [49] was 5.06 µM. For the same compound, the TGI [50] was 29.7 µM, the TGI [51] was 20.6 µM and the TGI [52] was 15 µM. It also gave a TGI [53] of 26.2 µM, a TGI [59] of 7.17 µM and a TGI [54] of 17.4 µM.
